Assay results from the supplement of paper PMC10307832.

Experiments:
Assay in all cases: relative viability (nuclei count vs DMSO), 5 days (fraction); higher = more cells survive
[1] = compound: C1CC1C(=O)NC2=NNC3=C2C=CC(=C3)C4=CC(=CC=C4)C(=O)NC5CC5 [XMD13-2] + CC(=O)Nc1cccc(-n2c(=O)n(C3CC3)c(=O)c3c(Nc4ccc(I)cc4F)n(C)c(=O)c(C)c32)c1 [Trametinib] (partner 0.02 µM)
Procedure, shortened: (§1)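 One day after seeding in 1536-well plates, lung cancer cell lines were dosed by pin tool. Dosing was either single-drug or a fixed anchor-drug dose plus five library-drug doses (not always all listed) in √10 steps. After 5 days, nuclei were stained in one fix-and-stain step and counted on 4× images, and relative viability is the nuclei count of treated wells over that of vehicle wells, given as the median of duplicate plates.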

[2] = compound: Cc1nc(Nc2ncc(C(=O)Nc3c(C)cccc3Cl)s2)cc(N2CCN(CCO)CC2)n1 [Dasatinib] + CS(=O)(=O)N1CCN(Cc2cc3nc(-c4cccc5[nH]ncc45)nc(N4CCOCC4)c3s2)CC1 [Pictilisib] (partner 1 µM)
Procedure, shortened: as §1

[3] = compound: Cc1nc(Nc2ncc(C(=O)Nc3c(C)cccc3Cl)s2)cc(N2CCN(CCO)CC2)n1 [Dasatinib] + C[C@]1(O)C[C@@H](c2nc(-c3ccc4ccc(-c5ccccc5)nc4c3)c3c(N)nccn32)C1 [Linsitinib] (partner 1 µM)
Procedure, shortened: as §1

[4] = compound: Cc1ccc(C(=O)Nc2cccc(C(F)(F)F)c2)cc1Nc1cncc(C(N)=O)c1 [ALW-II-49-7] + CC1(C)CCC(c2ccc(Cl)cc2)=C(CN2CCN(c3ccc(C(=O)NS(=O)(=O)c4ccc(N[C@H](CCN5CCOCC5)CSc5ccccc5)c(S(=O)(=O)C(F)(F)F)c4)cc3)CC2)C1 [Navitoclax] (partner 0.5 µM)
Procedure, shortened: as §1

With NCI-H358 the relative viability ([1]; first compound 0.05 µM) was 0.128, the relative viability ([1]; first compound 0.1581 µM) was 0.127 and the relative viability ([1]; first compound 0.5 µM) was 0.132. It also gave a relative viability ([1]; first compound 1.581 µM) of 0.13, a relative viability ([1]; first compound 5 µM) of 0.135 and a relative viability ([2]; first compound 0.005 µM) of 0.383. For the same cell line, the relative viability ([2]; first compound 0.01581 µM) was 0.232, the relative viability ([2]; first compound 0.05 µM) was 0.287 and the relative viability ([2]; first compound 0.1581 µM) was 0.206. For the same cell line, the relative viability ([2]; first compound 0.5 µM) was 0.208, the relative viability ([3]; first compound 0.005 µM) was 0.607 and the relative viability ([3]; first compound 0.01581 µM) was 0.484. The relative viability ([3]; first compound 0.05 µM) was 0.387, the relative viability ([3]; first compound 0.1581 µM) was 0.232 and the relative viability ([3]; first compound 0.5 µM) was 0.277.
Work on NCI-H522 yielded a relative viability ([1]; first compound 0.05 µM) of 0.852, a relative viability ([1]; first compound 0.1581 µM) of 0.688 and a relative viability ([1]; first compound 0.5 µM) of 0.82. It also gave a relative viability ([1]; first compound 1.581 µM) of 0.711 and a relative viability ([1]; first compound 5 µM) of 0.759.
NCI-H650 gave a relative viability ([1]; first compound 0.05 µM) of 1.37, a relative viability ([1]; first compound 0.1581 µM) of 1.02 and a relative viability ([1]; first compound 0.5 µM) of 1.05. The relative viability ([1]; first compound 1.581 µM) was 0.917, the relative viability ([1]; first compound 5 µM) was 0.991 and the relative viability ([2]; first compound 0.005 µM) was 0.862. For the same cell line, the relative viability ([2]; first compound 0.01581 µM) was 0.794, the relative viability ([2]; first compound 0.05 µM) was 0.898 and the relative viability ([2]; first compound 0.1581 µM) was 0.497. The relative viability ([2]; first compound 0.5 µM) was 0.345, the relative viability ([3]; first compound 0.005 µM) was 0.847 and the relative viability ([3]; first compound 0.01581 µM) was 0.941. It also gave a relative viability ([3]; first compound 0.05 µM) of 0.892, a relative viability ([3]; first compound 0.1581 µM) of 0.416 and a relative viability ([3]; first compound 0.5 µM) of 0.396.
In the case of NCI-H661, the relative viability ([1]; first compound 0.05 µM) is reported as 0.538, the relative viability ([1]; first compound 0.1581 µM) is reported as 0.614 and the relative viability ([1]; first compound 0.5 µM) is reported as 0.665. The relative viability ([1]; first compound 1.581 µM) was 0.615, the relative viability ([1]; first compound 5 µM) was 0.409 and the relative viability ([2]; first compound 0.005 µM) was 0.269. For the same cell line, the relative viability ([2]; first compound 0.01581 µM) was 0.272, the relative viability ([2]; first compound 0.05 µM) was 0.225 and the relative viability ([2]; first compound 0.1581 µM) was 0.274. It also gave a relative viability ([2]; first compound 0.5 µM) of 0.269, a relative viability ([3]; first compound 0.005 µM) of 0.43 and a relative viability ([3]; first compound 0.01581 µM) of 0.329. It also gave a relative viability ([3]; first compound 0.05 µM) of 0.31, a relative viability ([3]; first compound 0.1581 µM) of 0.236 and a relative viability ([3]; first compound 0.5 µM) of 0.215.
With NCI-H1299 the relative viability ([4]; first compound 0.08 µM) was 1.03, the relative viability ([4]; first compound 0.253 µM) was 1.08 and the relative viability ([4]; first compound 0.8 µM) was 1.05. It also gave a relative viability ([4]; first compound 2.53 µM) of 1.07, a relative viability ([4]; first compound 8 µM) of 0.968 and a relative viability ([2]; first compound 0.005 µM) of 0.676. For the same cell line, the relative viability ([2]; first compound 0.01581 µM) was 0.359, the relative viability ([2]; first compound 0.05 µM) was 0.313 and the relative viability ([2]; first compound 0.1581 µM) was 0.091. It also gave a relative viability ([2]; first compound 0.5 µM) of 0.0817, a relative viability ([3]; first compound 0.005 µM) of 0.978 and a relative viability ([3]; first compound 0.01581 µM) of 0.996. For the same cell line, the relative viability ([3]; first compound 0.05 µM) was 0.93, the relative viability ([3]; first compound 0.1581 µM) was 0.286 and the relative viability ([3]; first compound 0.5 µM) was 0.146.
NCI-H1563 showed a relative viability ([2]; first compound 0.005 µM) of 0.66, a relative viability ([2]; first compound 0.01581 µM) of 0.564 and a relative viability ([2]; first compound 0.05 µM) of 0.584. For the same cell line, the relative viability ([2]; first compound 0.1581 µM) was 0.597, the relative viability ([2]; first compound 0.5 µM) was 0.558 and the relative viability ([3]; first compound 0.005 µM) was 0.961. The relative viability ([3]; first compound 0.01581 µM) was 0.794, the relative viability ([3]; first compound 0.05 µM) was 0.779 and the relative viability ([3]; first compound 0.1581 µM) was 0.761. It also gave a relative viability ([3]; first compound 0.5 µM) of 0.601.
In the case of NCI-H1648, the relative viability ([1]; first compound 0.05 µM) is reported as 0.526, the relative viability ([1]; first compound 0.5 µM) is reported as 0.454 and the relative viability ([1]; first compound 1.581 µM) is reported as 0.55. It also gave a relative viability ([1]; first compound 5 µM) of 0.374.
NCI-H1650 gave a relative viability ([1]; first compound 0.05 µM) of 0.852, a relative viability ([1]; first compound 0.1581 µM) of 0.663 and a relative viability ([1]; first compound 0.5 µM) of 0.65. It also gave a relative viability ([1]; first compound 1.581 µM) of 0.526, a relative viability ([1]; first compound 5 µM) of 0.695 and a relative viability ([4]; first compound 0.08 µM) of 1.05. For the same cell line, the relative viability ([4]; first compound 0.253 µM) was 1.06, the relative viability ([4]; first compound 0.8 µM) was 1.32 and the relative viability ([4]; first compound 2.53 µM) was 1.34. For the same cell line, the relative viability ([4]; first compound 8 µM) was 1.21, the relative viability ([2]; first compound 0.005 µM) was 0.481 and the relative viability ([2]; first compound 0.01581 µM) was 0.277. For the same cell line, the relative viability ([2]; first compound 0.05 µM) was 0.259, the relative viability ([2]; first compound 0.1581 µM) was 0.215 and the relative viability ([2]; first compound 0.5 µM) was 0.199.
For NCI-H1703, the relative viability ([4]; first compound 0.08 µM) was 1.02, the relative viability ([4]; first compound 0.253 µM) was 1.08 and the relative viability ([4]; first compound 0.8 µM) was 0.964. The relative viability ([4]; first compound 2.53 µM) was 0.406, the relative viability ([4]; first compound 8 µM) was 0.291 and the relative viability ([2]; first compound 0.005 µM) was 0.2. The relative viability ([2]; first compound 0.01581 µM) was 0.195, the relative viability ([2]; first compound 0.05 µM) was 0.203 and the relative viability ([2]; first compound 0.1581 µM) was 0.179. It also gave a relative viability ([2]; first compound 0.5 µM) of 0.169, a relative viability ([3]; first compound 0.005 µM) of 0.139 and a relative viability ([3]; first compound 0.01581 µM) of 0.29. The relative viability ([3]; first compound 0.05 µM) was 0.247, the relative viability ([3]; first compound 0.1581 µM) was 0.0903 and the relative viability ([3]; first compound 0.5 µM) was 0.144.
In the case of NCI-H2170, the relative viability ([1]; first compound 0.05 µM) is reported as 0.94, the relative viability ([1]; first compound 0.1581 µM) is reported as 0.929 and the relative viability ([1]; first compound 0.5 µM) is reported as 0.965. The relative viability ([1]; first compound 1.581 µM) was 0.883, the relative viability ([1]; first compound 5 µM) was 0.95 and the relative viability ([4]; first compound 0.08 µM) was 0.701. It also gave a relative viability ([4]; first compound 0.253 µM) of 0.568, a relative viability ([4]; first compound 0.8 µM) of 0.569 and a relative viability ([4]; first compound 2.53 µM) of 0.655. For the same cell line, the relative viability ([4]; first compound 8 µM) was 0.592, the relative viability ([2]; first compound 0.005 µM) was 0.286 and the relative viability ([2]; first compound 0.01581 µM) was 0.234. For the same cell line, the relative viability ([2]; first compound 0.05 µM) was 0.257, the relative viability ([2]; first compound 0.1581 µM) was 0.265 and the relative viability ([2]; first compound 0.5 µM) was 0.203.
Work on NCI-H2342 yielded a relative viability ([1]; first compound 0.05 µM) of 0.766, a relative viability ([1]; first compound 0.1581 µM) of 0.917 and a relative viability ([1]; first compound 0.5 µM) of 0.697. For the same cell line, the relative viability ([1]; first compound 1.581 µM) was 0.912 and the relative viability ([1]; first compound 5 µM) was 0.822.
SW 900 showed a relative viability ([1]; first compound 0.05 µM) of 0.924, a relative viability ([1]; first compound 0.1581 µM) of 0.943 and a relative viability ([1]; first compound 0.5 µM) of 0.993. It also gave a relative viability ([1]; first compound 1.581 µM) of 0.859 and a relative viability ([1]; first compound 5 µM) of 0.881.
